Results reported in paper PMC4987125 (Molecular microbiology, 2015).
Where no end group is shown, it is not given here.

Assays:
[1] = system: PepO in intact cells, lysed cells or conditioned supernatants; test: Activity-based screening for PepO localization; type: in vitro ADME, Streptococcus pyogenes; conditions: 50 nM sSHP2-C8, intact cells, lysed cells or conditioned supernatants of ΔoppD shp2GGG shp3GGG pepO+ and pepO- cultures, 30 °C, 4 hours; read-out ΔpepO shp2GGGshp3GGG Pshp3-lux reporter
[2] = system: Rgg2/3 quorum-sensing pathway (Pshp3-lux); test: Luminescence transcriptional reporter assay, Pshp3-lux; type: cell-based, Streptococcus pyogenes; conditions: WT NZ131 Pshp3-lux, CDM with 1% mannose and 0.05% glucose; 500 nM RI-10, 500 nM L10A or 10 mM MgSO4

DILIIVGG [sSHP2-C8]
PepO-dependent degradation of SHP in cellular fractions [1]: found only in the cytoplasmic fraction

O=S(=O)([O-])[O-].[Mg+2] [Mg^2+, MgSO4]
effect on Pshp3-lux induction in mannose-induced wild-type reporter [2]: unlike cultures treated with the inactive L10A variant or Mg^2+
